Laboratory results taken from US10202343B2, “MIF modulators” (YALE UNIVERSITY, priority 2008, dated 2019).
Read-outs that look alike come from different tables or passages of the source.

Experiments:
[1] = target: T1, MIF tautomerase activity (Homo sapiens, UniProt P14174); details: literature, Cheng & Al-Abed 2006; cited from earlier work
T1 sequence (P14174 2-115 limits assumed): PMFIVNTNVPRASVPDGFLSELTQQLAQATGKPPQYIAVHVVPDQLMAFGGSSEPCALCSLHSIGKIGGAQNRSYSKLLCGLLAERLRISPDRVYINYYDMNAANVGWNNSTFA

[2] = target: T2, MIF-CD74 Binding (biotin-labeled recombinant human MIF, recombinant human MIF receptor CD74 ectodomain) (Homo sapiens, UniProt P14174); assay: MIF-CD74 binding (capture) assay; parameters: concentration of C74 % MaxInhib (number after @): unit not given here; details: for CD74 % MaxInhib / C74 % MaxInhib: number before @; for Capture % Max. Inhib. / Capture IC50: Table 3; for concentration of C74 % MaxInhib (number after @) / C74 % MaxInhib: Table 18
T2 sequence (P14174 2-115 limits assumed): T1 sequence (P14174 2-115 limits assumed)

[3] = target: T3, Human MIF (MIF tautomerase activity) (Homo sapiens, UniProt P14174); assay: HPP tautomerase assay; format: biochemical
T3 construct: made in house
T3 sequence (P14174 2-115 limits assumed): T1 sequence (P14174 2-115 limits assumed)
Procedure: The HPP assay used was adapted to the microtiter plate format. […] Dilutions of the enzyme were prepared in 50 mM sodium phosphate buffer, 1 mM EDTA, pH 6.5. HPP was obtained from Aldrich. A stock solution of 60 mM HPP in ethanol is prepared and kept for maximally 4 hours on ice. The working solution (600 μM) of the substrate was prepared by diluting an aliquot of the stock solution with 50 mM sodium phosphate buffer, 1 mM EDTA, pH 6.5. […] Inhibitor and enzyme solutions were pipetted manually using an Eppendorf 12-channel pipette. Addition of substrate to start the reaction was performed with an Igel 96 pipetting station (OpalJena, Jena, Germany), which allows simultaneous addition of fluid to all 96 wells of the plates. Optical density (OD) was determined using a SPECTRAmax 250 reader (Molecular Devices). The reader was operated with the SoftmaxPro 2.6.1 software. Assay: Three wells of the microtiter plates were filled with buffer only, to allow for blanking. […] The last step was performed using the 96-channel pipetting device. The plate was then immediately (i.e. within a few seconds) transferred manually to the SPECTRAmax 250 reader and the optical density was determined (310 nm). From the data obtained, IC50 values were calculated using Excel® and XLfit® software.

[4] = tested on: MIF-dependent signal transduction (ERK1/2 phosphorylation); assay: MIF-dependent signal transduction in cells (ERK1/2 phosphorylation); format: cell-based; details: compared to isoxazoline-1
Procedure: Two additional assays were performed on compounds according to the present invention. In the first, MIF-dependent signal transduction in cells as evidenced by a reduction in ERK1/2 phosphorylation and its inhibitory action is compared to the known small molecule MIF antagonist, isoxazoline-1 following the assay reported in Leng L., Metz C, Fang Y, Xu J, Donnelly S, Baugh J, Delonery T, Chen Y, Mitchell R A, and Bucala R. 2003. MIF Signal Transduction Initiated by Binding to CD74. J Exp Med 197, 1467-1476.

[5] = tested on: ovarian cancer cell line; assay: growth of an ovarian cancer cell line; format: cell-based
Text: KSP inhibitor ARRY-520 is used as a substitute for Paclitaxel in Type I ovarian cancer cells. J Transl Med. 7:63.

[6] = press release, cited from earlier work
[7] = Table 7, data cell c6, number before @
[8] = Table 6, data cell c7, read-out: HPP IC50
[9] = Table 19, data cell c5, read-out: CD74 IC50
[10] = Table 19, data cell c6, read-out: HPP IC50

CC(C)(C)OC(=O)C[C@H]1CC(c2ccc(O)c(F)c2)=NO1 [(R)-17]
potency (inhibition of MIF tautomerase activity) [1]: 0.55 µM

Cc1ccc2oc(-c3ccc(Cl)cc3)nc2c1 [MIF-124]
concentration of CD74 % MaxInhib (number after @) ([2]; Table 7): 0.078 µM | CD74 % MaxInhib ([2]; Table 7, data cell c7): 11% | concentration of HPP % MaxInhib (number after @) ([3]; Table 7): 1000 µM | HPP % MaxInhib [3, 7]: 29%

COCCc1nc2ccccc2n1Cc1ccccc1 [MIF-066]
concentration of CD74 % MaxInhib (number after @) ([2]; Table 5): 1.87 µM | CD74 % MaxInhib ([2]; Table 5): 25% | HPP Max Inhib ([3]; Table 5): 18%

O=c1c2cc(F)ccc2sn1-c1ccc(Cl)cc1 [MIF-141]
CD74 IC50 ([2]; Table 6, data cell c9): agonist | IC50 [3, 8]: 5.6 µM

COc1cccc(Cn2c(=O)oc3ccc(OC)cc32)c1 [Compound 3, 5-methoxy-3-(3-methoxy-benzyl)-3H-benzooxazol-2-one]
concentration of CD74 % MaxInhib (number after @) ([2]; Table 4): 1.87 µM | concentration of HPP Max Inhib (number after @) ([3]; Table 4): > 500 µM | HPP Max Inhib ([3]; Table 4, number before @): 41%

Cc1ccc2oc(=O)n(Cc3cccc(O)c3)c2c1 [Compound 098]
concentration of CD74 % MaxInhib (number after @) ([2]; Table 4): 0.0078 µM | IC50 ([3]; Table 4, read-out: HPP IC50): 0.01 µM | inhibitory action on MIF-dependent ERK1/2 phosphorylation [4]: significant inhibitory action | activity in the ovarian cancer assay (growth inhibition) [5]: significant activity

O=C1c2cc(F)ccc2CN1c1ccc(Cl)cc1 [MIF-125]
concentration of CD74 % MaxInhib (number after @) ([2]; Table 9): 0.12 µM | CD74 % MaxInhib ([2]; Table 9): 19% | HPP % MaxInhib ([3]; Table 9, number before @): 45%

c1ccc(Cn2c(-c3cscn3)nc3ccccc32)cc1 [Compound 17, 4-(1-benzyl-1H-benzo[d]imidazol-2-yl)thiazole]
concentration of CD74 % MaxInhib (number after @) ([2]; Table 5): 0.039 µM | IC50 ([2]; Table 5, read-out: CD74 IC50): > 1000 µM | concentration of HPP Max Inhib (number after 'at') ([3]; Table 5): 5 µM

Fc1ccc2cc(-c3ccc(Cl)cc3)[nH]c2c1 [MIF-127]
concentration of CD74 % MaxInhib (number after @) ([2]; Table 10): 0.34 µM | CD74 % MaxInhib ([2]; Table 10): 22% | IC50 ([3]; Table 10, read-out: HPP IC50): 240 µM

COc1ccc(-n2sc3ccc(F)cc3c2=O)cc1 [MIF-142]
CD74 IC50 ([2]; Table 6, data cell c9): agonist | IC50 [3, 8]: 6.5 µM

O=c1c2cc([N+](=O)[O-])ccc2sn1-c1ccc(Cl)cc1 [Compound 34]
Capture % Max. Inhib. [2]: 11% | CD74 % MaxInhib ([2]; Table 6, data cell c8): 11% | IC50 ([3]; Table 3, read-out: HPP IC50): 6.2 µM | IC50 [3, 8]: 6.2 µM

CC(=O)Oc1ccc2nc(-c3cc4ccccc4o3)oc(=O)c2c1 [Compound 22]
IC50 ([2]; Table 2, read-out: MIF-CD74 IC50): 2.5 µM | IC50 ([2]; Table 5, read-out: CD74 IC50): 2.5 µM | IC50 ([2]; Table 15, read-out: CD74 IC50): 2.5 µM | IC50 ([3]; Table 15, read-out: HPP IC50): 730 µM

O=c1oc2cc(O)ccc2n1Cc1ccccc1 [Compound 14]
concentration of CD74 % MaxInhib (number after @) ([2]; Table 4): 0.039 µM | CD74 % MaxInhib ([2]; Table 4): 22% | HPP Max Inhib ([3]; Table 1): 28% | concentration of HPP Max Inhib (number after @) ([3]; Table 4): 5 µM

Clc1ccc2nc(-c3ccccc3)oc2c1 [MIF-120]
concentration of CD74 % MaxInhib (number after @) ([2]; Table 7): 0.078 µM | CD74 % MaxInhib ([2]; Table 7, data cell c7): 11% | concentration of HPP % MaxInhib (number after @) ([3]; Table 7): 0.1 µM | HPP % MaxInhib [3, 7]: 13%

COc1cccc(-n2sc3ccc(F)cc3c2=O)c1 [Compound 38]
Capture IC50 [2]: agonist | CD74 IC50 ([2]; Table 6, data cell c9): agonist | IC50 ([3]; Table 3, read-out: HPP IC50): 8 µM | IC50 ([3]; Table 6, data cell c7, listed as MIF-113, read-out: HPP IC50): 8 µM

O=c1c2cc(F)c(F)cc2sn1-c1ccc(Cl)cc1 [MIF-143]
CD74 IC50 ([2]; Table 6, data cell c9): agonist | IC50 [3, 8]: 4.9 µM

O=C1c2ccc(F)cc2CN1c1ccc(Cl)cc1 [MIF-126]
concentration of CD74 % MaxInhib (number after @) ([2]; Table 9): 0.078 µM | CD74 % MaxInhib ([2]; Table 9): 7% | concentration of HPP % MaxInhib (number after @) ([3]; Table 9): 100 µM | HPP % MaxInhib ([3]; Table 9, number before @): 32%

COc1ccccc1Cc1cn(-c2ccc(O)cc2)nn1 [MIF-070]
concentration of C74 % MaxInhib (number after @) [2]: 0.0078 | C74 % MaxInhib [2]: 14% | concentration of HPP Max Inhib (number after @) ([3]; Table 18): 1000 | HPP Max Inhib ([3]; Table 18, number before @): 35%

COc1cccc(Cn2c(=O)oc3ccc(C)cc32)c1 [Compound 5]
concentration of CD74 % MaxInhib (number after @) ([2]; Table 4): 1.87 µM | CD74 % MaxInhib ([2]; Table 4): 42% | IC50 ([3]; Table 1, read-out: HPP IC50): 2.9 µM

COC(=O)c1cccc(Cn2cc(-c3ccc(O)cc3)nn2)c1 [MIF-036]
IC50 [2, 9]: 1.2 µM | IC50 [3, 10]: 2.5 µM

O=c1c2ccc(F)c(F)c2sn1-c1ccc(Cl)cc1 [MIF-134]
concentration of CD74 % MaxInhib (number after @) ([2]; Table 6): 3.76 µM | CD74 % MaxInhib ([2]; Table 6, data cell c8): 11% | IC50 [3, 8]: 5.6 µM

COc1cccc(Cn2cc(-c3ccc(O)cc3)nn2)c1OC [MIF-034]
IC50 [2, 9]: 1.2 µM | IC50 [3, 10]: 0.5 to 1 µM

Oc1ccc(-n2cc(Cc3ccccc3O)nn2)cc1 [MIF-071]
concentration of C74 % MaxInhib (number after @) [2]: 0.24 | C74 % MaxInhib [2]: 9% | IC50 ([3]; Table 18, read-out: HPP IC50): 1000 µM

O=c1c2ccc(Br)cc2sn1-c1ccc(Cl)cc1 [Compound 36]
Capture % Max. Inhib. [2]: 10% | CD74 % MaxInhib ([2]; Table 6, data cell c8): 10% | IC50 ([3]; Table 3, read-out: HPP IC50): 11 µM | IC50 [3, 8]: 11 µM

Fc1ccc2[nH]c(-c3ccc(Cl)cc3)cc2c1 [MIF-128]
concentration of CD74 % MaxInhib (number after @) ([2]; Table 10): 0.0039 µM | CD74 % MaxInhib ([2]; Table 10): 20% | IC50 ([3]; Table 10, read-out: HPP IC50): 280 µM

Cc1ccc2c(c1)oc(=O)n2Cc1ccccc1 [Compound 2, 3-benzyl-6-methyl-3H-benzooxazol-2-one]
concentration of CD74 % MaxInhib (number after @) ([2]; Table 4): 1.87 µM | CD74 % MaxInhib ([2]; Table 4): 25% | IC50 ([3]; Table 1, read-out: HPP IC50): 3.4 µM

Fc1ccc2nn(-c3ccc(Cl)cc3)cc2c1 [MIF-129]
concentration of CD74 % MaxInhib (number after @) ([2]; Table 11): 0.12 µM | CD74 % MaxInhib ([2]; Table 11): 27% | IC50 ([3]; Table 11, read-out: HPP IC50): 490 µM

Clc1ccc(-c2nc3cc(Cl)ccc3o2)cc1 [MIF-122]
concentration of CD74 % MaxInhib (number after @) ([2]; Table 7): 3.76 µM | CD74 % MaxInhib ([2]; Table 7, data cell c7): 13% | HPP % MaxInhib [3, 7]: 31%

Fc1ccc2[nH]c(-c3ccc(Cl)cc3)nc2c1 [MIF-130]
concentration of CD74 % MaxInhib (number after @) ([2]; Table 12): 0.34 µM | CD74 % MaxInhib ([2]; Table 12): 21% | HPP % MaxInhib ([3]; Table 12, number before @): 28%

Cc1cccc(Cc2cn(-c3ccc(O)cc3)nn2)c1 [MIF-079]
concentration of C74 % MaxInhib (number after @) [2]: 0.078 | C74 % MaxInhib [2]: 30% | IC50 ([3]; Table 18, read-out: HPP IC50): 475 µM

O=c1c2ccc(F)cc2sn1-c1cccc(Cl)c1 [MIF-132]
concentration of CD74 % MaxInhib (number after @) ([2]; Table 6): 0.078 µM | CD74 % MaxInhib ([2]; Table 6, data cell c8): 20% | IC50 [3, 8]: 5 µM

COC(=O)CC1CC(c2ccc(O)cc2)=NO1 (stereo not shown) [ISO-1, reference compound]
activity in the capture assay [2]: inactive | activity in the HPP tautomerase assay [3]: inactive

Ic1cc(-c2ccccc2)ncn1 [Compound 4-IPP, 4-iodo-6-phenylpyrimidine, reference compound]
activity in the capture assay [2]: inactive | IC50 ([3]; read-out: inhibitor in the HPP tautomerase assay): 4.5 µM | anti-tumor activity ([6]; by blocking tumor-specific angiogenesis): exhibits anti-tumor activity | safety profile ([6]; laboratory studies): favorable safety profile

O=c1oc2ccc(F)cc2n1Cc1cccc(O)c1 [MIF-108]
activity in the ovarian cancer assay (growth inhibition) [5]: significant activity

Cc1ccc2cc(C(=O)c3cc4ccccc4o3)oc2c1 [MIF-077]
concentration of CD74 % MaxInhib (number after @) ([2]; Table 13): 0.24 µM | CD74 % MaxInhib ([2]; Table 13): 16% | concentration of HPP Max Inhib (number after @) ([3]; Table 13): 1000 µM | HPP Max Inhib ([3]; Table 13, data cell c5, number before @): 30%

N#Cc1ccc2c(=O)n(-c3ccc(Cl)cc3)sc2c1 [Compound 37]
Capture % Max. Inhib. [2]: 16% | CD74 % MaxInhib ([2]; Table 6, data cell c8): 16% | IC50 ([3]; Table 3, read-out: HPP IC50): 3.1 µM | IC50 [3, 8]: 3.1 µM | activity in the ovarian cancer assay (growth inhibition) [5]: significant activity

N#Cc1ccc2sn(-c3ccc(Cl)cc3)c(=O)c2c1 [Compound 40]
Capture IC50 [2]: agonist | CD74 IC50 ([2]; Table 6, data cell c9): agonist | IC50 ([3]; Table 3, read-out: HPP IC50): 19 µM | IC50 [3, 8]: 19 µM

COc1ccccc1Cn1cc(-c2ccc(O)cc2)nn1 [MIF-033]
CD74 IC50 ([2]; Table 19, data cell c5): agonist | HPP IC50 ([3]; Table 19, data cell c6): agonist

CNC(=O)c1nc2ccccc2n1Cc1ccccc1 [MIF-065]
concentration of CD74 % MaxInhib (number after @) ([2]; Table 5): 1.87 µM | CD74 % MaxInhib ([2]; Table 5): 16% | HPP Max Inhib ([3]; Table 5): 13%
